In PubChem BioAssay (NCI) one finds TGI data, which are given here for 21 compounds.

Among the test systems are NCI/ADR-RES ovarian; CCRF-CEM leukemia; SK-OV-3 ovarian; NCI-H460 lung; HCT-15 colon; SK-MEL-28 melanoma.
Holding throughout (test): NCI anticancer screen, dose series, 48 h

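A five-concentration, 48-hour dose response in 96-well plates underlies each endpoint, interpolated linearly between surrounding concentrations. Definition used: TGI = concentration required for complete inhibition of growth.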 Where a SMILES comes first, the peptide text is derived from it. The star is where a group is joined. X36 = O=C(c1ccc(-c2ccc(Cl)cc2Cl)o1)*

Consider `CC1Cn2c(nc3ccccc32)NC1=O` (stereo not given), for which the TGI in the assay with NCI/ADR-RES ovarian, in the assay with CCRF-CEM leukemia, with SK-OV-3 ovarian, in the assay with NCI-H460 lung and in the assay on HCT-15 colon was more than 100 µM throughout.
With `Cc1ccc2c(=O)cc(-c3cccs3)[nH]c2n1`, the TGI is 11.9 µM in the assay with NCI/ADR-RES ovarian; more than 87.6 µM in the assay with CCRF-CEM leukemia; more than 100 µM in the assay with SK-OV-3 ovarian; more than 100 µM in the assay with SK-MEL-28 melanoma; more than 100 µM in the assay on NCI-H460 lung; more than 100 µM with HCT-15 colon.
Consider `CCC1(C(=O)OC(C)(C)C)OC12C(C)CCCC2C` (stereo not given), for which the TGI in the assay on NCI/ADR-RES ovarian was more than 100 µM; in the assay with CCRF-CEM leukemia, 39.8 µM; with SK-OV-3 ovarian, more than 100 µM; in the assay with SK-MEL-28 melanoma, more than 100 µM; in the assay on NCI-H460 lung, more than 100 µM; in the assay with HCT-15 colon, more than 100 µM.
Regarding `NCCSc1nc2ccccc2c(=O)n1-c1ccccc1`, the TGI in the assay on NCI/ADR-RES ovarian, in the assay with CCRF-CEM leukemia, with SK-OV-3 ovarian, with SK-MEL-28 melanoma and in the assay on HCT-15 colon was more than 100 µM throughout.
Regarding `O=c1[nH]/c(=C/c2ccc(OCc3ccccc3)cn2)c(=O)[nH]/c1=C/c1ccc(O)cc1`, the TGI is 2.09 µM in the assay with NCI/ADR-RES ovarian; more than 100 µM in the assay with CCRF-CEM leukemia; more than 100 µM in the assay with SK-OV-3 ovarian; more than 100 µM with SK-MEL-28 melanoma; more than 100 µM in the assay on NCI-H460 lung; more than 100 µM with HCT-15 colon.
Regarding `CC1(CF)SCc2nc3ccccc3n21` (stereo not given), the TGI in the assay with NCI/ADR-RES ovarian, in the assay with SK-OV-3 ovarian, in the assay on SK-MEL-28 melanoma, in the assay with NCI-H460 lung and in the assay with HCT-15 colon was more than 100 µM throughout.
In the case of `CC1=NN2C(=N)/C(=C/c3ccco3)C(=O)N=C2S1`, the TGI in the assay with NCI/ADR-RES ovarian, in the assay on CCRF-CEM leukemia, in the assay on SK-OV-3 ovarian, in the assay on SK-MEL-28 melanoma, with NCI-H460 lung and in the assay with HCT-15 colon was more than 100 µM throughout.
In the case of `CCC(C)C(NC(=O)CNC(=O)C(Cc1ccccc1)NC(=O)C1CCCN1C(=O)c1ccc(-c2ccc(Cl)cc2Cl)o1)C(=O)OC` (stereo not given) (X36-PFGI-OMe; configuration not given here), the TGI in the assay with NCI/ADR-RES ovarian, in the assay on CCRF-CEM leukemia, in the assay with SK-OV-3 ovarian, in the assay on SK-MEL-28 melanoma, with NCI-H460 lung and with HCT-15 colon was more than 100 µM each time.
In the case of `C1CCC2C(C1)CCCC2NC1=NCCO1` (stereo not given), the TGI in the assay on NCI/ADR-RES ovarian, in the assay with CCRF-CEM leukemia, in the assay with SK-OV-3 ovarian, in the assay with SK-MEL-28 melanoma, with NCI-H460 lung and in the assay with HCT-15 colon was more than 100 µM each time.
As for `COC(=O)[C@H](Cc1ccccc1)NC(=O)[C@H](Cc1ccccc1)NC(=O)[C@@H]1CCCN1C(=O)N[C@H]1C2C=CC(C2)C1C(=O)N1CCC[C@H]1C(=O)N[C@@H](C)C(=O)N[C@H](C(=O)OC)C(C)C` (stereo not given in full), the TGI in the assay with NCI/ADR-RES ovarian is more than 100 µM; in the assay on CCRF-CEM leukemia it was 56.4 µM; with SK-OV-3 ovarian, more than 100 µM; in the assay with SK-MEL-28 melanoma, more than 100 µM; in the assay on NCI-H460 lung it was more than 100 µM; in the assay on HCT-15 colon, more than 100 µM.
In the case of `Cc1ccc(S(=O)(=O)OCC(=O)O)cc1`, the TGI in the assay on NCI/ADR-RES ovarian, in the assay with CCRF-CEM leukemia, in the assay with SK-MEL-28 melanoma, with NCI-H460 lung and in the assay with HCT-15 colon was more than 100 µM each time.
Turning to `N#Cc1nc(-c2cccs2)oc1N`, the TGI with NCI/ADR-RES ovarian, in the assay on CCRF-CEM leukemia, in the assay with SK-OV-3 ovarian, in the assay with SK-MEL-28 melanoma, in the assay on NCI-H460 lung and with HCT-15 colon was more than 100 µM in each case.
For `O=C1CCCCC(=O)OC2(CCCCC2=O)CC1` (stereo not given), the TGI in the assay with NCI/ADR-RES ovarian, in the assay on CCRF-CEM leukemia, with SK-OV-3 ovarian, in the assay on SK-MEL-28 melanoma, in the assay with NCI-H460 lung and in the assay on HCT-15 colon was more than 100 µM in each case.
Regarding `O=c1oc2ccccc2c(Nc2ccc3c(c2)Oc2ccccc2O3)c1[N+](=O)[O-]`, the TGI in the assay on NCI/ADR-RES ovarian is 69.4 µM; in the assay with CCRF-CEM leukemia, more than 100 µM; in the assay with SK-OV-3 ovarian, 40.9 µM; in the assay with SK-MEL-28 melanoma, 50 µM; in the assay on NCI-H460 lung, more than 100 µM; in the assay on HCT-15 colon, more than 100 µM.
As for `CC(=O)O[C@H]1C#C/C=C\C#CC[C@@H]2C(=O)N[C@@H]12`, the TGI is more than 75.9 µM in the assay with NCI/ADR-RES ovarian; more than 100 µM in the assay on CCRF-CEM leukemia; more than 100 µM with SK-OV-3 ovarian; more than 100 µM in the assay on SK-MEL-28 melanoma; 37.6 µM in the assay with NCI-H460 lung; more than 82 µM with HCT-15 colon.
With `CC1=COC(C)(C=C(C#N)C#N)CC1` (stereo not given), the TGI in the assay on NCI/ADR-RES ovarian, with CCRF-CEM leukemia, in the assay with SK-OV-3 ovarian, in the assay with SK-MEL-28 melanoma and in the assay on NCI-H460 lung was more than 100 µM in each case.
`CCOP(=O)(OCC)c1c(C(=O)OC)cc(=O)[nH]c1-c1ccc(C)cc1`: the TGI is more than 57.5 µM in the assay on NCI/ADR-RES ovarian; 6.91 µM in the assay with CCRF-CEM leukemia; 49.4 µM with SK-OV-3 ovarian; 34.7 µM in the assay on SK-MEL-28 melanoma; 43.4 µM with NCI-H460 lung; 27.2 µM in the assay with HCT-15 colon.
`CCOC(=O)/C1=C(\C)N(c2ccc(C)cc2)C(=O)c2ccccc2C(=O)c2c(OC(C)=O)ccc(OC(C)=O)c21`: the TGI in the assay on NCI/ADR-RES ovarian is 53.9 µM; with CCRF-CEM leukemia, 26.2 µM; with SK-OV-3 ovarian it was 70.9 µM; with SK-MEL-28 melanoma, 12.2 µM; in the assay with NCI-H460 lung it was 47.8 µM; in the assay with HCT-15 colon it was 43.9 µM.
`NC(=O)NNC(=O)c1nc[nH]c1[N+](=O)[O-]`: the TGI in the assay on NCI/ADR-RES ovarian, in the assay with CCRF-CEM leukemia, in the assay on SK-OV-3 ovarian, in the assay with SK-MEL-28 melanoma, with NCI-H460 lung and in the assay with HCT-15 colon was more than 100 µM each time.
Consider `Nc1c(Cl)ncnc1N[C@@H]1C[C@H]1CO`, for which the TGI in the assay with NCI/ADR-RES ovarian, in the assay with CCRF-CEM leukemia, in the assay with SK-MEL-28 melanoma, with NCI-H460 lung and in the assay on HCT-15 colon was more than 100 µM each time.
For the compound `NP(=O)(OCC1=CC(=O)c2ccccc2C1=O)N(CCBr)CCBr` (stereo not given), the TGI with NCI/ADR-RES ovarian was more than 73.4 µM; with CCRF-CEM leukemia, more than 100 µM; in the assay with SK-OV-3 ovarian, 30.9 µM; in the assay on SK-MEL-28 melanoma, 11.7 µM; in the assay with NCI-H460 lung, 16 µM; in the assay on HCT-15 colon it was 20.1 µM.
